Results reported in article PMC12586182 (Frontiers in Oncology, 2025).
Read-outs that look alike come from different tables or passages of the source.

Tests used:
[1] = system: REC-1; assay: Cell viability assay (ATPlite); format: cell-based, human; settings: REC-1 cell line; for IC50: 72 hours incubation
Experimental: (§1) Intracellular ATP content was used as an indirect readout of cell number using the ATPlite 1Step bioluminescence assay (Revvity, Groningen, the Netherlands). Cells were seeded in 384-well plates at an optimized density to ensure unrestricted growth and maximal signal at the end of the experiment. After 24 hours of incubation, the starting cell number was determined by adding ATPlite to each well of a control plate and recording luminescence on an Envision multimode reader (Revvity, Waltham, MA, USA) ([4]). […] Vehicle-treated controls were included to determine maximal cell proliferation. […] After incubation for an additional 72 hours, the ATP content was measured in each well using ATPlite. The luminescent signal in inhibitor-treated wells was normalized to vehicle-treated control wells to determine the percentage viability at each concentration. Cell doublings were determined by relating the cell number of vehicle-treated controls to the starting cell number for each cell line. […] The quality of the complete assay was determined by a parallel test with doxorubicin on two cell lines. IC50 values were calculated by fitting a four-parameter logistic model to the percentage viability values using IDBS XLfit5 (IDBS, Guildford, United Kingdom). All curves were visually inspected and submitted to an F-test as implemented in IDBS XLfit5. […] When this dose range was too high in a certain cell line to allow for a reliable determination of the IC50, a new dilution series was prepared using a diluted stock solution and was used to retest the compound on the cell line.

[2] = system: SU-DHL-6; assay: Cell viability assay (ATPlite); format: cell-based, human; settings: SU-DHL-6 cell line; for IC50: 72 hours incubation
Experimental: as §1

[3] = biological target: T1, AurC (Homo sapiens, UniProt Q9UQB9); assay: Kinase panel profiling at 1 µmol/L (mobility shift assay, Carna); format: biochemical; settings: 1 µmol/L of BTK inhibitor
T1 construct: purchased Carna Biosciences
T1 sequence (Q9UQB9 1-309): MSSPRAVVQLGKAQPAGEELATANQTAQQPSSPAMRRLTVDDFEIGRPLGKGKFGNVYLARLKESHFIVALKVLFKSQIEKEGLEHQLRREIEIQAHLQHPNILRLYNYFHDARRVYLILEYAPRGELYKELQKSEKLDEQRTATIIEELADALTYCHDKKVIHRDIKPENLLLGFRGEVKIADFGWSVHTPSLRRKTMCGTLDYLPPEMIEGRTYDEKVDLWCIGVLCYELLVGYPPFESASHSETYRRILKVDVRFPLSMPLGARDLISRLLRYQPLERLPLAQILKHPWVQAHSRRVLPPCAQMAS

[4] = biological target: T2, PAK4 (Homo sapiens, UniProt O96013); assay: as above; format: biochemical; settings: 1 µmol/L of BTK inhibitor
T2 construct: purchased Carna Biosciences

[5] = biological target: T3, RSK2 (Homo sapiens, UniProt P51812); assay: as above; format: biochemical; settings: 1 µmol/L of BTK inhibitor
T3 construct: purchased Carna Biosciences
T3 sequence (P51812 whole entry): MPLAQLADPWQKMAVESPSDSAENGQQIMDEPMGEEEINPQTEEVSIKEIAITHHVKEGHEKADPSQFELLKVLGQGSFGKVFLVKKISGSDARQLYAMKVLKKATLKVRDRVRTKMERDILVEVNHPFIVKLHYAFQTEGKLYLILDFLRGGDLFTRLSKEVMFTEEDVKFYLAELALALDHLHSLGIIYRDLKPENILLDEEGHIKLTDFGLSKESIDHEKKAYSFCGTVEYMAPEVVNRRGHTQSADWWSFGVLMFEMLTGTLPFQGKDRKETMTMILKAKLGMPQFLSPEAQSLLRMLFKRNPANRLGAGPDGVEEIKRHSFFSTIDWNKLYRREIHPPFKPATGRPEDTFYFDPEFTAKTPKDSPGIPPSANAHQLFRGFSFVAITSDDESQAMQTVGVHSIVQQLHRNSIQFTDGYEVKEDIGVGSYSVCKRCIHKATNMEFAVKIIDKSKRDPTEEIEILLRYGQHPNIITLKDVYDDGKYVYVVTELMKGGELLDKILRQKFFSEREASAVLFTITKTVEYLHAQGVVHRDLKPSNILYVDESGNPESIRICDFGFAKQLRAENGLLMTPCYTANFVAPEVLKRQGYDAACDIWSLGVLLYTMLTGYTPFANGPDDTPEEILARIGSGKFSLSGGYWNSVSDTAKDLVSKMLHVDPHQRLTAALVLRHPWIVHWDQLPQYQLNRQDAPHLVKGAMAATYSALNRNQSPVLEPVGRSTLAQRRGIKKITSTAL

[6] = biological target: T4, RET (Homo sapiens, UniProt P07949); assay: as above; format: biochemical; settings: 1 µmol/L of BTK inhibitor
T4 construct: purchased Carna Biosciences
T4 sequence (P07949 29-1114): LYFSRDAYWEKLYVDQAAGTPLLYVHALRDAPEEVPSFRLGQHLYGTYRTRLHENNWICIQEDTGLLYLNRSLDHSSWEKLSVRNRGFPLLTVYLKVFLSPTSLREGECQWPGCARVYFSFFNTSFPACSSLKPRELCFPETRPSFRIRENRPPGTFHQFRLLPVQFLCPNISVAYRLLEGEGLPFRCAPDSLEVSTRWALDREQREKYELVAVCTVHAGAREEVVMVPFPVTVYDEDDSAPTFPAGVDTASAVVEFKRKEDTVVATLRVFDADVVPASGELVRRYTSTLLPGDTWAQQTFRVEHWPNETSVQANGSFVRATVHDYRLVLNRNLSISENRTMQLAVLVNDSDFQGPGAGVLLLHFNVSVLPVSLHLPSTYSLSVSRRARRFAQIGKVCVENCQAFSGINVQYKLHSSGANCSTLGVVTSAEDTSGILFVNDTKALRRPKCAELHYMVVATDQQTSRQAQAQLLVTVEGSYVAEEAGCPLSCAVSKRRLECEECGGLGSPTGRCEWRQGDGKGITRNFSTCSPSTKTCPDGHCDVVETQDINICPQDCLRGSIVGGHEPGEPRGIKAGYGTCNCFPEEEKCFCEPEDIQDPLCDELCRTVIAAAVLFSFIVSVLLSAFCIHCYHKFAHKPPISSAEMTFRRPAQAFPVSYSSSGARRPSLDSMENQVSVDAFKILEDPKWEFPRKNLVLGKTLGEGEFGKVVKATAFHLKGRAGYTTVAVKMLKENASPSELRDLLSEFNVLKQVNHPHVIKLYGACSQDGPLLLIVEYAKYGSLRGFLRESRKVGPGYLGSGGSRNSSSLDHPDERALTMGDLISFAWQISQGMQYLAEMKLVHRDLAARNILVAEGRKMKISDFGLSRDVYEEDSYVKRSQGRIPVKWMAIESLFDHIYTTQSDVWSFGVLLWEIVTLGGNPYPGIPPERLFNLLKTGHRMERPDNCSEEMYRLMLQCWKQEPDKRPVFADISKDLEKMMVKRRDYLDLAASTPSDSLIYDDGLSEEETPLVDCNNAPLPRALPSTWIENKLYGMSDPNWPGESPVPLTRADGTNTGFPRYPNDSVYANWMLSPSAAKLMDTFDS

[7] = biological target: T5, NIM1K (Homo sapiens, UniProt Q8IY84); assay: as above; format: biochemical; settings: 1 µmol/L of BTK inhibitor
T5 construct: purchased Carna Biosciences
T5 sequence (Q8IY84 whole entry): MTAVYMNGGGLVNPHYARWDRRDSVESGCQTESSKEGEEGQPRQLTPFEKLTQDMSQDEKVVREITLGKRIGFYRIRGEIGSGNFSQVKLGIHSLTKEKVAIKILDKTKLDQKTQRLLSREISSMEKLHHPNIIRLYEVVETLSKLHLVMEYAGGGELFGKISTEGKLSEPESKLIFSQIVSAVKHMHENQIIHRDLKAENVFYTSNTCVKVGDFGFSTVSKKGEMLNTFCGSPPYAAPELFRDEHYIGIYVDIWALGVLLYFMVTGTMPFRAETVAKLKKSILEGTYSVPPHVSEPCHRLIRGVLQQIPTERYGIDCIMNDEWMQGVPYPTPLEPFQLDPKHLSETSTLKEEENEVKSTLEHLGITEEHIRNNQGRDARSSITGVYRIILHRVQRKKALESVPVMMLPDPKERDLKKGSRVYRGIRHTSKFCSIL

[8] = biological target: T6, CLK1 (Homo sapiens, UniProt P49759); assay: as above; format: biochemical; settings: 1 µmol/L of BTK inhibitor
T6 construct: purchased Carna Biosciences
T6 sequence (P49759 whole entry): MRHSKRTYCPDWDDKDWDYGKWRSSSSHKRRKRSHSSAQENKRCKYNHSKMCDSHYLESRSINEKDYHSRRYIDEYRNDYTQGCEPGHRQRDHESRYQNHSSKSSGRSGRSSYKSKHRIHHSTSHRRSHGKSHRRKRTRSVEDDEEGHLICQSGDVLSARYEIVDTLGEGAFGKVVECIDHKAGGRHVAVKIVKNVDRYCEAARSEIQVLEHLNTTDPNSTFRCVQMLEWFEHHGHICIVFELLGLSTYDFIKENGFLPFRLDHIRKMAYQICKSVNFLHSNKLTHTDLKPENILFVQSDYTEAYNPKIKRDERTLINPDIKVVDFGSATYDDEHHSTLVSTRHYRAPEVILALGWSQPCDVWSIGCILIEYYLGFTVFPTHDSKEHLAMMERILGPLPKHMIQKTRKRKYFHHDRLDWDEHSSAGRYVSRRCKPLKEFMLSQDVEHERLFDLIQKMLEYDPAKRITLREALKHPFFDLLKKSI

[9] = biological target: T7, EPHA4 (Homo sapiens, UniProt P54764); assay: as above; format: biochemical; settings: 1 µmol/L of BTK inhibitor
T7 construct: purchased Carna Biosciences
T7 sequence (P54764 20-986): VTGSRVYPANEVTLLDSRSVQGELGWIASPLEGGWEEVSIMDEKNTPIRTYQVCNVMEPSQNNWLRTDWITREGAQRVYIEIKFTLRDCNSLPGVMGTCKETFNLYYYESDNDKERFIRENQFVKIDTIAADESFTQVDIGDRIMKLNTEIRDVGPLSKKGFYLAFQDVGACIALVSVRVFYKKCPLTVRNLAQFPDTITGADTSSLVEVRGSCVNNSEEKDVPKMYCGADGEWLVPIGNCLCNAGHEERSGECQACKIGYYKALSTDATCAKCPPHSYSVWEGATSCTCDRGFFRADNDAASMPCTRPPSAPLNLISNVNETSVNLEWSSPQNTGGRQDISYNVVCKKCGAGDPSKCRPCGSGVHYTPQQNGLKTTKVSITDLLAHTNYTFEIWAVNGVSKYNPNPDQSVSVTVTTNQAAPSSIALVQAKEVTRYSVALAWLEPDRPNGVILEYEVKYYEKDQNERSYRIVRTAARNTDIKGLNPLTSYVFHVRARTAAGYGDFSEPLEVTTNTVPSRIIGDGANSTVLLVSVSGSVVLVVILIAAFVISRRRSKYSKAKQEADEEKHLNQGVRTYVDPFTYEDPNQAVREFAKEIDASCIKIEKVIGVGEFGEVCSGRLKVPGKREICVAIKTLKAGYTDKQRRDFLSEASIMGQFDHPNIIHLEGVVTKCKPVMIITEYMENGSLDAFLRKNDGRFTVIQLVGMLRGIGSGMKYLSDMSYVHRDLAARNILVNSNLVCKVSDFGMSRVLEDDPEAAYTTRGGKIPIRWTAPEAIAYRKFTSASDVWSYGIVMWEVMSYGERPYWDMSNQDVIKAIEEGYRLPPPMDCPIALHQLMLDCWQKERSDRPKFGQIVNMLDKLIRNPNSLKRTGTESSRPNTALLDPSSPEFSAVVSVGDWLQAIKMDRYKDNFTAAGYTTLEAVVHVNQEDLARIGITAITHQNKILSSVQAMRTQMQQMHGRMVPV

[10] = biological target: T8, CK1δ (Homo sapiens, UniProt P48730); assay: as above; format: biochemical; settings: 1 µmol/L of BTK inhibitor
T8 construct: purchased Carna Biosciences
T8 sequence (P48730 whole entry): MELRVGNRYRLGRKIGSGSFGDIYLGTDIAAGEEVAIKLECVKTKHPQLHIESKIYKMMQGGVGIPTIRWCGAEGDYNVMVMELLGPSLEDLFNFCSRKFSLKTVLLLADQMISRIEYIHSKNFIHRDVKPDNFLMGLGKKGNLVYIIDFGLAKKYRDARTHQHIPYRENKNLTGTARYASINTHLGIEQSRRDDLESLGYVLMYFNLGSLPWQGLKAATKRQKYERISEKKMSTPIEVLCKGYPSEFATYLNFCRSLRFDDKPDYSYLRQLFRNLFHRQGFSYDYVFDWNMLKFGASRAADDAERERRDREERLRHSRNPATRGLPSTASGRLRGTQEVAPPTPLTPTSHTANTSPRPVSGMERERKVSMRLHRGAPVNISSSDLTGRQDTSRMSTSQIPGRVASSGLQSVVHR

[11] = biological target: T9, MAPKAPK3 (Homo sapiens, UniProt Q16644); assay: as above; format: biochemical; settings: 1 µmol/L of BTK inhibitor
T9 construct: purchased Carna Biosciences
T9 sequence (Q16644 whole entry): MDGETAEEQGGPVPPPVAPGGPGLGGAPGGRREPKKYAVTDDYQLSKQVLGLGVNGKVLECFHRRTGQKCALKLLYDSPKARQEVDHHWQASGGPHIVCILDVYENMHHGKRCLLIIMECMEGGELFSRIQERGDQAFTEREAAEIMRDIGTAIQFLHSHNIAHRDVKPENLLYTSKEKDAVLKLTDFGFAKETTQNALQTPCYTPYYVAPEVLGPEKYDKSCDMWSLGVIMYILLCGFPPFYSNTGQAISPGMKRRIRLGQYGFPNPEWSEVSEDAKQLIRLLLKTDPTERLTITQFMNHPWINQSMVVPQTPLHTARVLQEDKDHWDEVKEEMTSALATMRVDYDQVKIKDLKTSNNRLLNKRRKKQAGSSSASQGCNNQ

[12] = biological target: T10, FGR (Homo sapiens, UniProt P09769); assay: as above; format: biochemical; settings: 1 µmol/L of BTK inhibitor
T10 construct: purchased Carna Biosciences

[13] = biological target: T11, MUSK (Homo sapiens, UniProt O15146); assay: as above; format: biochemical; settings: 1 µmol/L of BTK inhibitor
T11 construct: purchased Carna Biosciences
T11 sequence (O15146 24-869): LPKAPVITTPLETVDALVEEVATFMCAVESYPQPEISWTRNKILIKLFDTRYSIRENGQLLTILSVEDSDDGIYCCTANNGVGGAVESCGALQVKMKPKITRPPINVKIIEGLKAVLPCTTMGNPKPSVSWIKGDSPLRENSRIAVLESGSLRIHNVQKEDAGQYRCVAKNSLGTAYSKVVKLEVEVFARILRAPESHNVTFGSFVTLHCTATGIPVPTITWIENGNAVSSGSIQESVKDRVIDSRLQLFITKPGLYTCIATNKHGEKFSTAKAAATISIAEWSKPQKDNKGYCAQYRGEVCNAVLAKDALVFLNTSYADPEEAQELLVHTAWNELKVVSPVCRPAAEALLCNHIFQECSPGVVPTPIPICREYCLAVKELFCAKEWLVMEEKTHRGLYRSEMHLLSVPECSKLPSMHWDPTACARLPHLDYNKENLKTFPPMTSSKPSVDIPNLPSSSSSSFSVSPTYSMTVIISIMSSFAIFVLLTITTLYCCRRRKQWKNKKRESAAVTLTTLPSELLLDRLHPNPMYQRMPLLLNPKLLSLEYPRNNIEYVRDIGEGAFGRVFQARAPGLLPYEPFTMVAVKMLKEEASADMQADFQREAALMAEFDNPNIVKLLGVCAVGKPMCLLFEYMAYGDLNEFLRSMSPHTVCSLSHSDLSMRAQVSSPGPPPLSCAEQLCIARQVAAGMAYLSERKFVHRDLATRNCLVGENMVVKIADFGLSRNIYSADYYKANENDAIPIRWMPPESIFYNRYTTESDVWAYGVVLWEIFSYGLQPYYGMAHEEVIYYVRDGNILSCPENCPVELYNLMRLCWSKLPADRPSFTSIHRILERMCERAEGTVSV

[14] = biological target: ERK1 (Homo sapiens, UniProt P27361); assay: Kinase enzyme activity assay (mobility shift assay, Carna); settings: for Percentage inhibition of kinase enzyme activity: Erk1, 1 µmol/L of BTK inhibitor
[15] = biological target: T12, BLK (Homo sapiens, UniProt P51451); assay: Kinase panel profiling at 1 µmol/L (mobility shift assay, Carna); format: biochemical; settings: 1 µmol/L of BTK inhibitor
T12 construct: purchased Carna Biosciences

[16] = biological target: T13, CaMK2δ (Homo sapiens, UniProt Q13557); assay: as above; format: biochemical; settings: 1 µmol/L of BTK inhibitor
T13 construct: purchased Carna Biosciences
T13 sequence (Q13557 whole entry): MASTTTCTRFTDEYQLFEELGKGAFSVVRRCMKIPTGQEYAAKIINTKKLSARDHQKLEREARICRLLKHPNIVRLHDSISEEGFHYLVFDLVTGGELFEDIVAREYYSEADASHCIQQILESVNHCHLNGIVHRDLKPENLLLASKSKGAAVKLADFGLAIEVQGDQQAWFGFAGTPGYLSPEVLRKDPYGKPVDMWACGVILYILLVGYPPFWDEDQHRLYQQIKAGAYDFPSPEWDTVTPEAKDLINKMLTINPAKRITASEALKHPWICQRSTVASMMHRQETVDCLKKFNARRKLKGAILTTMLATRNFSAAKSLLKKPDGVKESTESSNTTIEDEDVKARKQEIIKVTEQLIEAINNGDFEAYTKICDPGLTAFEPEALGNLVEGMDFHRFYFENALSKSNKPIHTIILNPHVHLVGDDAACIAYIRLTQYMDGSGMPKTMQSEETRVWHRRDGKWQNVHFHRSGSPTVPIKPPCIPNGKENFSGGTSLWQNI

[17] = biological target: T14, MRCKβ (Homo sapiens, UniProt Q9Y5S2); assay: as above; format: biochemical; settings: 1 µmol/L of BTK inhibitor
T14 construct: purchased Carna Biosciences

[18] = Homo sapiens, Rec1, read-out: IC50

SMILES: CC#CC(=O)N1CCC[C@H]1c1nc(-c2ccc(C(=O)Nc3ccccn3)cc2)c2c(N)nccn12 [acalabrutinib]
- IC50 [1, 18]: 21 nM
- IC50 ([2]; Homo sapiens, read-out: IC50): 3.1 nM
- Percentage inhibition of kinase enzyme activity [3]: 7.21%
- Percentage inhibition of kinase enzyme activity [4]: -1.65%
- Percentage inhibition of kinase enzyme activity [5]: 0.054%
- Percentage inhibition of kinase enzyme activity [6]: 13.72%
- Percentage inhibition of kinase enzyme activity [7]: -7.33%
- Percentage inhibition of kinase enzyme activity [8]: -8.11%
- Percentage inhibition of kinase enzyme activity [9]: -3.03%
- Percentage inhibition of kinase enzyme activity [10]: 2.76%
- Percentage inhibition of kinase enzyme activity [11]: -11.15%
- Percentage inhibition of kinase enzyme activity [12]: 2.91%
- Percentage inhibition of kinase enzyme activity [13]: -0.58%
- Percentage inhibition of kinase enzyme activity [14]: -2.38%
- Percentage inhibition of kinase enzyme activity [15]: 8.43%
- Percentage inhibition of kinase enzyme activity [16]: -3.53%
- Percentage inhibition of kinase enzyme activity [17]: -15.91%

SMILES: C=CC(=O)N1CCC[C@@H](n2nc(-c3ccc(Oc4ccccc4)cc3)c3c(N)ncnc32)C1 [ibrutinib]
- IC50 [1, 18]: 0.51 nM
- IC50 ([2]; Homo sapiens, read-out: IC50): 12 nM
- Percentage inhibition of kinase enzyme activity [3]: 6.95%
- Percentage inhibition of kinase enzyme activity [4]: 10.65%
- Percentage inhibition of kinase enzyme activity [5]: 7.41%
- Percentage inhibition of kinase enzyme activity [6]: 87.66%
- Percentage inhibition of kinase enzyme activity [7]: -2.33%
- Percentage inhibition of kinase enzyme activity [9]: 12.63%
- Percentage inhibition of kinase enzyme activity [10]: 7.46%
- Percentage inhibition of kinase enzyme activity [11]: -6.50%
- Percentage inhibition of kinase enzyme activity [12]: 99.02%
- Percentage inhibition of kinase enzyme activity [13]: 1.76%
- Percentage inhibition of kinase enzyme activity [14]: 1.74%
- Percentage inhibition of kinase enzyme activity [15]: 101.19%
- Percentage inhibition of kinase enzyme activity [16]: -0.83%
- Percentage inhibition of kinase enzyme activity [17]: -7.55%

SMILES: O=C(c1ccc(Oc2ccccc2)cc1Cl)c1c[nH]c2ncnc(N[C@@H]3CC[C@@H](CO)OC3)c12 [nemtabrutinib]
- IC50 ([1]; Homo sapiens, Rec1, 72 h): 2000 nM
- IC50 [1]: 2040 nM
- IC50 ([2]; Homo sapiens, SU-DHL-6, 72 h): 600 nM
- IC50 [2]: 577 nM
- Percentage inhibition of kinase enzyme activity [3]: 65.10%
- Percentage inhibition of kinase enzyme activity [4]: 53.09%
- Percentage inhibition of kinase enzyme activity [5]: 7.48%
- Percentage inhibition of kinase enzyme activity [6]: 98.99%
- Percentage inhibition of kinase enzyme activity [7]: -2.21%
- Percentage inhibition of kinase enzyme activity [8]: 0.63%
- Percentage inhibition of kinase enzyme activity [9]: 82.34%
- Percentage inhibition of kinase enzyme activity [10]: 25.76%
- Percentage inhibition of kinase enzyme activity [11]: -15.88%
- Percentage inhibition of kinase enzyme activity [12]: 90.23%
- Percentage inhibition of kinase enzyme activity [13]: 100.11%
- IC50 [14]: 543 nM
- Inhibition of ERK1 [14]: did not inhibit
- Percentage inhibition of kinase enzyme activity [14]: 61.74%
- Percentage inhibition of kinase enzyme activity [15]: 102.70%
- Percentage inhibition of kinase enzyme activity [16]: 14.10%
- Percentage inhibition of kinase enzyme activity [17]: -5.25%

SMILES: COc1ccc(F)cc1C(=O)NCc1ccc(-c2nn([C@@H](C)C(F)(F)F)c(N)c2C(N)=O)cc1 [pirtobrutinib]
- IC50 [1, 18]: 38 nM
- IC50 fold change of nemtabrutinib with the inhibitor [1]: 53
- IC50 ([2]; Homo sapiens, read-out: IC50): 13 nM
- IC50 fold change of nemtabrutinib with the inhibitor [2]: 43
- Percentage inhibition of kinase enzyme activity [3]: 39.97%
- Percentage inhibition of kinase enzyme activity [4]: 4.35%
- Percentage inhibition of kinase enzyme activity [5]: 2.95%
- Percentage inhibition of kinase enzyme activity [6]: 51.77%
- Percentage inhibition of kinase enzyme activity [7]: -1.08%
- Percentage inhibition of kinase enzyme activity [8]: -2.61%
- Percentage inhibition of kinase enzyme activity [9]: 9.50%
- Percentage inhibition of kinase enzyme activity [10]: 6.20%
- Percentage inhibition of kinase enzyme activity [11]: -18.63%
- Percentage inhibition of kinase enzyme activity [12]: 18.17%
- Percentage inhibition of kinase enzyme activity [13]: 1.20%
- Percentage inhibition of kinase enzyme activity [14]: -1.16%
- Percentage inhibition of kinase enzyme activity [15]: 30.87%
- Percentage inhibition of kinase enzyme activity [16]: -7.24%
- Percentage inhibition of kinase enzyme activity [17]: 0.61%

SMILES: C=CC(=O)N1CCC([C@@H]2CCNc3c(C(N)=O)c(-c4ccc(Oc5ccccc5)cc4)nn32)CC1 [zanubrutinib]
- IC50 ([1]; Homo sapiens, Rec1, 72 h): 3.1 nM
- IC50 ([2]; Homo sapiens, SU-DHL-6, 72 h): 3.8 nM
- Percentage inhibition of kinase enzyme activity [3]: -0.85%
- Percentage inhibition of kinase enzyme activity [6]: 18.89%
- Percentage inhibition of kinase enzyme activity [9]: 0.04%
- Percentage inhibition of kinase enzyme activity [11]: -12.22%
- Percentage inhibition of kinase enzyme activity [12]: 2.22%
- Percentage inhibition of kinase enzyme activity [13]: 11.33%
- Percentage inhibition of kinase enzyme activity [15]: 98.41%
